Data taken from patent US12048307B2, “Compositions, methods and uses for cleaning, disinfecting and/or sterilizing” (Collidion, Inc., priority 2017, dated 2024).

System: Bacillus subtilis (ATCC #19659) spores
Assay: B. subtilis spore viability assay, 15 minutes treatment, with or without serum
Type: cell-based
Details: spore suspension about 1×10^6 cfu/mL, 48 hours incubation at 37° C. on TSA, >500 = too many colonies to count
Protocol: To prepare stock cultures of pathogenic spores, 10 mL nutrient broth was inoculated using a stock culture of Bacillus subtilis (ATCC #19659) and incubated on an orbital shaker for 24±2 hours at approximately 150 rpm at 36±1° C. This culture was used to inoculate Tryptic Soy Agar (TSA) plates. Each plate was inoculated with 500 μL of broth culture and the inoculum spread with a sterile L spreader. In addition, the purity of this culture was verified by streaking on TSA plates and incubating plates at 36±1° C. for 24±2 hours. Each plate was wrapped with parafilm. inverted and incubated for 12-14 days at 36±1° C. Following incubation, spores were harvested by adding 10 mL cold sterile water to each plate, the growth removed from the plates using a spreader, and the resulting suspensions were transferred into 15 mL sterile conical tubes. The suspensions were centrifuged at 5,000 rpm (4,500×g) for approximately 10 minutes at room temperature. After removal of the supernatant, the spore pellet was washed by re-suspending pellet with 10 mL cold sterile water and centrifuged at 5,000 rpm (4,500×g) for approximately 10 minutes. This washing step was repeated two more times. The spore pellet was re-suspended with 10 mL sterile water and the spore suspension was stored at 2-5° C. until needed. The spore suspension was stained using stain and the spores examined under the microscope to assess quality of the spores. A minimum of five fields were examined and the ratio of the spores to vegetative cells (or sporangia) was determined. Percentage of spores versus vegetative cells were about 95% spores. Spore titer was determined by preparing serial dilutions, plating the dilutions on TSA plates, incubating plates for 24±2 hours at 36±1° C., and counting the number of colonies formed to determine the titer. The test culture was standardized by using phosphate buffer to achieve a final test culture microbe population of 1.0×10^6 cfu/mL.
Assay samples were set up with or without serum, such as, e.g., Tryptic Soy Broth (TSB) or Bovine Serum (BS). The purpose of the serum was to better simulate the organic load of blood and other tissue which tends to deactivate an antimicrobial agent. In general, assays were conducted by first incubating a pathogen spore sample with a composition disclosed herein for a specified treatment time period, optionally with serum, and then culturing the sample on growth medium to assess spore viability.
In one series of experiments, assays where the samples were treated with serum were set up to contain 100 μL of pathogen spore suspension (containing about 1×10^6 cfu/mL), 50 μL of serum, and 850 μL of a composition described in Example 1. […] The inoculated plates were then incubated at 37° C. for 48 hours and the number of bacterial colonies, if any, counted. […]

Compound	Count (number of bacterial colonies), 5% Serum	Count (number of bacterial colonies), No Serum
O=CCCCC=O [0.5% Glutaraldehyde, Glutaraldehyde]	>500	>500
hypochlorous acid [97 ppm HOCl]	>500	0
